Numbering of substitutions follows the chain as printed. Where “and” joins values, the source holds several entries; their conditions need not be identical. Identical values can stand only once. Blank lines part the entries; values can stand above or below the compound they belong to.
Assays:
Format in all cases: cell-based
OX2R Y354A = target: T1, OX2R Y354A (Homo sapiens, UniProt O43614, Y354A); experiment: β-arrestin PathHunter assay, OX2R Y354A; conditions: for beta-arrestin recruitment fold change: Y354A, listed as OxB
T1 construct: expressed in transfected cells; host or cells: CHO-K1 cells stably expressing EA β-arrestin2 (DiscoveRX), transiently transfected with pCMV-ProLink OX2R
T1 sequence (O43614 whole entry Y354A): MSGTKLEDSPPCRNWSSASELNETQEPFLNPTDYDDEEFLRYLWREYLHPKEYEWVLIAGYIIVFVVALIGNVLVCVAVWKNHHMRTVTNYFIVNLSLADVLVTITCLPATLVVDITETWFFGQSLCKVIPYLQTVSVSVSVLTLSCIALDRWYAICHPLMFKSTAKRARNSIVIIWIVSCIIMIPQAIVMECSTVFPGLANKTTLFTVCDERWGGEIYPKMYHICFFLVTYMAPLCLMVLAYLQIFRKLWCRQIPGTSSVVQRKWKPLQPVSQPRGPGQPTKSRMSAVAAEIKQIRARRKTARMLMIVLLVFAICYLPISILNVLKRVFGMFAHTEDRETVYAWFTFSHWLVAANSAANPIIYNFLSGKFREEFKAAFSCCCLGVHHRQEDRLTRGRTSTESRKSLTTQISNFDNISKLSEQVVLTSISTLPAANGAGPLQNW
T1 sequence (P32121 whole entry partner): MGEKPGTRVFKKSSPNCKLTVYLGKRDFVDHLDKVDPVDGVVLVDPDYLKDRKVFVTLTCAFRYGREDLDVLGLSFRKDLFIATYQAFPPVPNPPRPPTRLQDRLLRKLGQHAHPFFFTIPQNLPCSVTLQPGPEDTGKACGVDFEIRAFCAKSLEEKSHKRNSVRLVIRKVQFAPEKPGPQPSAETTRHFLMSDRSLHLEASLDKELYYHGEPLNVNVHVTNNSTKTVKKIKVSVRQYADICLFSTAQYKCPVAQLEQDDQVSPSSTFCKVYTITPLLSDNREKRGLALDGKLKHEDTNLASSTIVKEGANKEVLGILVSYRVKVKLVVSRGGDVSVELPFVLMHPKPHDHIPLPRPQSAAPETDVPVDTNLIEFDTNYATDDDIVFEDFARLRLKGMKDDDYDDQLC
Description: (§1) β-Arrestin recruitment activity was measured by using the PathHunter system (DiscoveRX) according to the manufacturer’s instruction. Receptor constructs used were the full-length wild-type (or mutant) human OX2R sequences cloned into pCMV-ProLink (DiscoveRX). CHO-K1 cells stably expressing EA β-arrestin2 (DiscoveRX) were plated on 384 well white plates (Thermo Fisher) at 4000 cells/well in HamF12 (Wako Pure Chemical Industries) supplemented with 10% fetal bovine serum (Corning) and penicillin-streptomycin (Wako Pure Chemical Industries) and incubated overnight at 37 °C under 5% CO2. Cells were transfected with plasmids encoding wild type or each mutant ProLink-tagged human OX2R using FuGENE HD (Promega). […] Detection reagent was added and incubated for 1 h at room temperature. Luminescent signal was detected using an EnVision plate reader (PerkinElmer). β-arrestin assays on different constructs were performed in two or three independent experiments (each done in quadruplicate). Dose response curves (shown in Supplementary Fig. 8) were fitted to the three-parameter model ‘log(agonist) vs response’ in GraphPad Prism to determine pEC50 values.

OX2R T111A = target: T2, OX2R T111A (Homo sapiens, UniProt O43614, T111A); experiment: IP accumulation assay, OX2R T111A; conditions: for % IP accumulation: listed as OXB
T2 construct: FLAG; expressed in transfected cells; host or cells: HEK293
T2 sequence (O43614 1-444 T111A): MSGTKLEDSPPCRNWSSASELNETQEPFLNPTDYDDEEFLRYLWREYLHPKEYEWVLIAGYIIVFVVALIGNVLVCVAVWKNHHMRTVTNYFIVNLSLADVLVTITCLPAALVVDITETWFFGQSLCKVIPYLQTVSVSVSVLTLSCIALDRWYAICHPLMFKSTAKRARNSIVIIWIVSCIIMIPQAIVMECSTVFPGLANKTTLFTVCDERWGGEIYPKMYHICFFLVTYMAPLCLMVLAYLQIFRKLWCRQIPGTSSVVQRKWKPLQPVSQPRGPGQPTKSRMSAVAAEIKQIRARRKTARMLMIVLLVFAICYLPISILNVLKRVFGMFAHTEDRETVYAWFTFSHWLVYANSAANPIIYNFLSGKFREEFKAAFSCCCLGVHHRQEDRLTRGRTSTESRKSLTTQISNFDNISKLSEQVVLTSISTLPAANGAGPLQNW
Description: (§2) The IP assay was adapted from a prior precedent. HEK293 cells were maintained in DMEM-high glucose (Millipore Sigma) supplemented with 5% fetal bovine serum (Corning) and penicillin-streptomycin (Millipore Sigma). Receptor constructs used were the full-length wild-type (or mutant) human OX1R and OX2R sequences cloned into pCDNA3. To enhance the Emax in the IP assay, a plasmid encoding full-length human Gαq subunit[66] was co-transfected into HEK293 cells with plasmids encoding orexin receptor constructs using Lipofectamine 3000 (Thermo Fisher). 24 h after transfection, the cells were plated on poly-D-lysine coated (Millipore Sigma) tissue culture-treated 96 well white plates with clear bottoms (Perkin Elmer) at 30,000 cells per well in Inositol-free DMEM (MP Biomedicals) supplemented with 5% fetal bovine serum, 4 mM L-glutamine (Millipore Sigma), penicillin-streptomycin, and about 5 uCi (5 ul) per ml myo-[2-3H] inositol (Perkin Elmer). The following day, the media was replaced with agonists that were diluted in HBSS (Millipore Sigma) containing 10 mM lithium chloride (Millipore Sigma) and incubated at 37 °C for 45 min. Then agonists were removed and cells were lysed on ice for 30 min with 10 mM formic acid (Millipore Sigma). 1.25 mg of poly-lysine coated YSI SPA beads (Perkin Elmer) was added to each well. The plates were mixed on an orbital shaker for 30 min. The plates were read on a MicroBeta scintillation counter (Perkin Elmer) the following day. IP accumulation assays on different constructs were performed in n ≥ 3 independent experiments (each done in duplicate), where n is shown in Supplementary Table 2.

OX2R V114A = target: T3, OX2R V114A (Homo sapiens, UniProt O43614, V114A); experiment: β-arrestin PathHunter assay, OX2R V114A
T3 construct: expressed in transfected cells; host or cells: CHO-K1 stably expressing EA β-arrestin2
T3 sequence (O43614 whole entry V114A): as the sequence (O43614 whole entry Y354A) above, with V114A, A354Y counted along it
Description: as §1

human OX2R wild type = target: T4, human OX2R wild type (Homo sapiens, UniProt O43614); experiment: Inositol phosphate accumulation assay for Gq signaling, OX2R WT; set-up: FLAG; expressed in transfected cells; host or cells: HEK293; conditions: for Emax: normalized to OX2R WT Emax with the same ligand;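 as to % IP accumulation: 100% equals the maximal response of wild-type OX2R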
T4 sequence (O43614 1-444): T2 sequence (O43614 1-444 T111A) with A111T
Description: as §2

- EC50 (OX2R Y354A; β-arrestin recruitment): 2400 nM
- EC50 (OX2R T111A; IP accumulation): 2100 nM
- Emax (OX2R T111A; relative to OX2R WT/TAK-925): 53
- EC50 (OX2R V114A; β-arrestin recruitment): 2200 nM
- EC50 (human OX2R wild type; IP accumulation): 7.5 nM
- % IP accumulation (human OX2R wild type; TAK-925 conc (log, M) -10.25): 0.00%
- Emax (human OX2R wild type): 100
Compound: COC(=O)N1CCC[C@H](NS(C)(=O)=O)[C@@H]1CO[C@H]1CC[C@@H](c2ccccc2)CC1 [TAK-925, methyl (2R,3S)−3-[(methylsulfonyl)amino]−2-{[(cis−4-phenylcyclohexyl)oxy]methyl}piperidine-1-carboxylate]

Compound: orexin B
- beta-arrestin recruitment fold change (OX2R Y354A; OxB concentration -6.00 (log, M)): 9.833 fold and 7.839 fold and 7.764 fold and 5.538 fold
- beta-arrestin recruitment fold change (OX2R Y354A; OxB concentration -6.52 (log, M)): 8.222 fold and 8.331 fold and 7.995 fold and 7.023 fold
- beta-arrestin recruitment fold change (OX2R Y354A; OxB concentration -7.00 (log, M)): 7.061 fold and 6.164 fold and 4.831 fold and 5.998 fold
- beta-arrestin recruitment fold change (OX2R Y354A; OxB concentration -7.52 (log, M)): 3.021 fold and 4.546 fold and 4.264 fold and 4.947 fold
- beta-arrestin recruitment fold change (OX2R Y354A; OxB concentration -8.00 (log, M)): 1.570 fold and 2.249 fold and 1.723 fold and 2.390 fold
- beta-arrestin recruitment fold change (OX2R Y354A; OxB concentration -8.52 (log, M)): 0.925 fold and 1.624 fold and 1.133 fold and 1.227 fold
- beta-arrestin recruitment fold change (OX2R Y354A; OxB concentration -9.00 (log, M)): 0.997 fold and 0.922 fold and 1.331 fold and 1.082 fold
- beta-arrestin recruitment fold change (OX2R Y354A; OxB concentration -10.00 (log, M)): 1.135 fold and 1.096 fold and 1.298 fold and 1.060 fold
- % IP accumulation (OX2R T111A; OXB conc (log, M) -6.95): 23.30% and 22.94% and 22.04%
- % IP accumulation (OX2R T111A; OXB conc (log, M) -7.43): 18.33% and 16.23% and 14.57%
- % IP accumulation (OX2R T111A; OXB conc (log, M) -7.91): 15.27% and 13.44% and 11.80%
- beta-arrestin recruitment fold change (OX2R V114A; V114A, OxB concentration -8.00 (log, M), listed as OxB): 1.594 fold and 2.704 fold and 1.365 fold and 1.888 fold
- % IP accumulation (human OX2R wild type; OXB conc (log, M) -6.47712, listed as OXB): 93.64% and 92.82% and 91.17% and 95.11% and 103.46%
- % IP accumulation (human OX2R wild type; OXB conc (log, M) -10.29, listed as OXB): 0.00% and 0.37% and 3.64%
- Emax (human OX2R wild type): 100
